Laboratory results as given in patent publication US20140249165A1, “PURINE DERIVATIVES FOR TREATMENT OF CYSTIC DISEASES” (Genzyme Corporation, priority 2006, published 2014).
Read-outs that look alike come from different tables or passages of the source.

Key:
[1] = test system: MDCK cysts; conditions: read-out: IC50 of inhibition of cystic growth; MDCK cysts in 3D collagen I gel, 96 hours incubation, Alamar Blue
[2] = test system: jck mouse model of PKD
[3] = test system: cystic kidneys (cell cycle and transcription proteins); assay: Western blot analysis of cystic kidney protein extracts; format: in vivo, mouse; conditions: cystic kidneys of treated mice
Description: Kidneys were homogenized in RIPA buffer (10 mM HEPES, pH 8.0, 100 mM NaCl, 1% Triton X-100, 0.1% SDS, 0.5% sodium deoxycholate, 1 mM DTT, 1 mM EDTA, 1 mM NaF, 1 mM Na3VO4) with Complete™ protease inhibitor cocktail (Roche Diagnostic GmbH, Mannheim, Germany). 30 μg of protein samples were separated in 4-12% SDS/acrylamide gels (Invitrogen, Carlsbad, Calif.). Gels were soaked in transfer buffer (192 mM glycine, 25 mM Tris, 10% methanol, pH 8.3) and transferred to Immobilone-P membranes (Millipore Corporation, Bedford, Mass.). Membranes were rehydrated with methanol and incubated in blocking buffer (5% powdered milk or 3% BSA in PBS) for 30 min. Membranes were incubated overnight at 4° C. with primary antibodies against RNApolII-p, p35/p25 (Abcam, Cambridge, Mass.); Rb-p, cycD1, cycD1-p, ERK2, ERK1/2-p (Cell Signaling, Danvers, Mass.); Rb2, RBBP, cycD3, caspase-2, caspase-3, ApaF1, Bcl-2, Bcl-XL, BAD (BD Biosciences, San Jose, Calif.); CDK7, CDK9, PCNA, GAPDH (US Biologicals, Swampscott, Mass.); cycD2 (BioSource International, Camarillo, Calif.), washed in TBST and incubated with HRP-labeled secondary antibodies as recommended by the manufacturer Immunoreactive proteins were detected using enhanced chemi-luminescence (Amersham Pharmacia Biotech, Little Chalfont Buckinghamshire, England).

[4] = test system: cpk model of PKD; conditions: cpk mice, 100 mg/kg IP daily, day 7 till day 21
[5] = test system: jck kidney; assay: PCNA and TUNEL staining of jck kidney sections; format: in vivo, mouse; conditions: Roscovitine treated jck kidney
[6] = jck female, 150 mg/kg IP daily, continuous 5 W
[7] = jck male, 50 mg/kg IP daily, continuous 5 W
[8] = jck male, 150 mg/kg IP daily, continuous 5 W (Table 2)
[9] = jck male, 150 mg/kg, daily dosing for 5 weeks (Table 2a)
[10] = jck male, 150 mg/kg, pulse treatment 5 W (1/1): 1 week on, 1 week off for 5 weeks
[11] = jck male, 150 mg/kg, pulse treatment 5 W (3/2): 3 weeks on, 2 weeks off

## CC[C@H](CO)Nc1nc(N(C)Cc2ccccc2)c2ncn(C(C)C)c2n1
[1]
  IC50: 190 µM

## CC[C@H](CO)Nc1nc(NCc2ccccc2)c2ncn(C(C)C)c2n1 [Roscovitine, 6-benzylamino-2-(R)-[(1-ethyl-2-hydroxy)ethylamino]-9-isopropylpurine]
[2]; [6]
  BUN: 31.09 ± 6.12 mg/dL
  Body weight: 19.79 ± 0.80 g
  Cystic volume: 0.74 ± 0.24 % BW
[2]; [7]
  BUN: 51.25 ± 10.19 mg/dL
  Body weight: 20.54 ± 1.66 g
  Cystic volume: 2.25 ± 0.66 % BW
[2]; [8]
  BUN: 26.78 ± 3.31 mg/dL
  Body weight: 21.52 ± 1.78 g
  Cystic volume: 0.98 ± 0.15 % BW
[2]; [9]
  BUN: 28.89 ± 7.51 mg/dL
  Body weight: 22.33 ± 1.05 g
  Cystic volume: 1.10 ± 0.41 % BW
[2]; [10]
  BUN: 43.90 ± 13.08 mg/dL
  Body weight: 22.14 ± 1.10 g
  Cystic volume: 1.28 ± 0.22 % BW
[2]; [11]
  BUN: 27.60 ± 4.32 mg/dL
  Body weight: 22.77 ± 0.39 g
  Cystic volume: 1.29 ± 0.40 % BW
[2]; jck mice, 50 mg/kg
  BUN: reduced
[2]; jck mice, 150 mg/kg
  BUN: normalized
[2]; jck mice, 50 or 150 mg/kg IP
  Tolerability (weight loss, mortality, toxicity): well tolerated with no weight loss, mortality or toxicity
[2]; jck mice, daily for one week followed by one week off, total of 5 weeks
  Cystogenesis with intermittent dosing: reduction of cystogenesis was detected
[2]; jck/jck males, 150 mg/kg daily for 3 weeks, followed by 2 weeks without treatment
  Anti-cystic effect after drug withdrawal: long lasting anti-cystic effect was detected with normalized levels of BUN
[3]
  Cyclin D2 and D3 expression: downregulated
  Level of ERK 1/2 activation: decreasing the level of ERK 1/2 activation
  Levels of Rb associated proteins Rb2 and RBB2: normalized
  Phosphorylation level of cyclin D1 (Thr-286): normalized phosphorylation level of cyclin D1
  Rb phosphorylation: dephosphorylation of Rb3
[3]; vs WT controls
  RNA pol II phosphorylation: reduced levels of RNA pol II phosphorylation
[4]
  BUN: 54.58 ± 9.60 mg/dL
  Body weight: 9.75 ± 1.00 g
  Creatinine: 0.29 ± 0.07 mg/dL
  Cystic volume: 14.62 ± 2.16 % BW
[5]; PCNA immunostaining
  PCNA-positive cells: quantitative reduction in PCNA-positive cells
[5]; TUNEL staining
  TUNEL-positive cells: reduced the number of TUNEL-positive cells
